From patent EP1914236A1 (Ortho-McNeil Pharmaceutical, Inc., priority 2002, dated 2003)

biological target: T1, human B2 bradykinin receptors (Homo sapiens, UniProt P30411); test: Bradykinin B2 (BK2) Receptor Binding Assay; settings: membranes of CHO-K1 cells transfected with human B2 bradykinin receptors; ~0.25 nM [3H]NPC17731; 60 min at 25°C
T1 construct: purchased Receptor Biology, Inc. (Baltimore, MD); host or cells: CHO-K1 cells transfected with the human B2 receptor (membranes)
T1 sequence (P30411 1-391): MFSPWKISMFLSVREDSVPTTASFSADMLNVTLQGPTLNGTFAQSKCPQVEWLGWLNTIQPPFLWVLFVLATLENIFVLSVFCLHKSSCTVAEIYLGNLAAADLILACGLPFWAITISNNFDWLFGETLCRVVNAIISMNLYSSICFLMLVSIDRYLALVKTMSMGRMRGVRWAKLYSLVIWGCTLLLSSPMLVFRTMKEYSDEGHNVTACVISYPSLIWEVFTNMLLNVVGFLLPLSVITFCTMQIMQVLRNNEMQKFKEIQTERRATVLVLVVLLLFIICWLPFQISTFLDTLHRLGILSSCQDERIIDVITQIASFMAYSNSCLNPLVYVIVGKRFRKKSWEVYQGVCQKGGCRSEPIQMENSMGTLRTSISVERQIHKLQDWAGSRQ
Protocol: Cell membranes of CHO-K1 cells transfected with human B2 bradykinin receptors (CH)-hB2) were purchased from Receptor Biology, Inc. (Baltimore,MD).
Samples were harvested on a Brandel Cell Harvester on to Wallac filtermat B sheets (96 sample format), and washed three times with 2 mL cold HEPES-buffer (10 mM, pH 7.5), and dried in a microwave oven.
The data were used to calculate either the % inhibition compared to control binding (when only a single concentration of test compound was evaluated) or a Ki value (when a range of concentrations were tested). Background was subtracted from mean cpm values and % inhibition was calculated as: [(total dpm-test compound dpm)/(total dpm-nonspecific dpm)]x100. Kd and Ki values were calculated using GraphPad PRISM data analysis program.

Going from `CCOc1ccc(C(=O)c2ccc(CCC(=O)N(C)c3ccc(C)c(COc4cccc5ccc(C)nc45)c3C)n2C)cn1` [Compound 86] to `CCOc1ccc(C(=O)c2ccc(CCC(=O)N(C)c3ccc(Cl)c(COc4cccc5ccc(C)nc45)c3Cl)n2C)cn1` [Compound 87], the Ki falls from 309 nM to 143 nM (2.2-fold). The second binds more tightly here.

Compared with `COc1ccc(C(=O)c2cc(CC(=O)N(C)c3ccc(Cl)c(COc4cccc5ccc(C)nc45)c3Cl)n(C)c2)cc1` [Compound 2, N-[2,4-Dichloro-3-(2-methyl-quinolin-8-yloxymethyl)-phenyl]-2-[4-(4-methoxybenzoyl)-1-methyl-1 H-pyrrol-2-yl]-N-methyl-acetamide], `Cc1ccc2cccc(OCc3c(Cl)ccc(N(C)C(=O)Cc4ccc(C(=O)c5ccc(F)cc5)n4C)c3Cl)c2n1` [Compound 34] is 2.2-fold higher in Ki: 518 nM for the first, 1150 nM for the second.

Compared with `C=CCN(C(=O)Cc1ccc(C(=O)c2ccc(C#N)cc2)n1C)c1ccc(Cl)c(COc2cccc3ccc(C)nc23)c1Cl` [Compound 21], `CCCN(C(=O)Cc1ccc(C(=O)c2ccc(C#N)cc2)n1C)c1ccc(Cl)c(COc2cccc3ccc(C)nc23)c1Cl` [Compound 19, 2-[5-(4-Cyano-benzoyl)-1-methyl-1H-pyrrol-2-yl]-N-[2,4-dichloro-3-(2-methyl-quinolin-8-yloxymethyl)-phenyl]-N-propyl-acetamide] is 7.6-fold higher in Ki: 514 nM for the first, 3890 nM for the second.

Going from `Cc1ccc2cccc(OCc3c(Cl)ccc(N(C)C(=O)Cc4ccc(C(=O)c5ccccn5)n4C)c3Cl)c2n1` [Compound 45] to `Cc1ccc2cccc(OCc3c(Cl)ccc(N(C)C(=O)Cc4ccc(C(=O)c5cccnc5)n4C)c3Cl)c2n1` [Compound 33], the Ki rises from 579 nM to 1390 nM (2.4-fold).

First: Cc1ccc2cccc(OCc3c(C)ccc(N(C)C(=O)Cc4ccc(-c5ccccc5)n4C)c3C)c2n1 [Compound 97, N-[2,4-Dimethyl-3-(2-methyl-quinolin-8-yloxymethyl)-phenyl]-N-methyl-2-(1-methyl-5-phenyl-1 H-pyrrol-2-yl)-acetamide]
Second: Cc1ccc(-c2ccc(CC(=O)N(C)c3ccc(C)c(COc4cccc5ccc(C)nc45)c3C)n2C)cc1 [Compound 98, N-[2,4-Dimethyl-3-(2-methyl-quinolin-8-yloxymethyl)-phenyl]-N-methyl-2-(1-methyl-5-p-tolyl-1H-pyrrol-2-yl)-acetamide]
The Ki of the first is 2-fold higher: 7190 nM for the first, 3610 nM for the second.

Going from `Cc1ccc2cccc(OCc3c(Cl)ccc(N(C)C(=O)Cc4ccc(C(=O)CN5CCCC5)n4C)c3Cl)c2n1` [Compound 37] to `Cc1ccc2cccc(OCc3c(Cl)ccc(N(C)C(=O)Cc4ccc(C(=O)C5CC5)n4C)c3Cl)c2n1` [Compound 32], the Ki rises from 846 nM to 1530 nM (1.8-fold).

Going from `Cc1ccc2cccc(OCc3c(Cl)ccc(N(C)C(=O)Cc4ccc(C(=O)c5cccc(C#N)c5)n4C)c3Cl)c2n1` [Compound 44] to `Cc1ccc2cccc(OCc3c(Cl)ccc(N(C)C(=O)Cc4ccc(C(=O)c5cccc(N)c5)n4C)c3Cl)c2n1` [Compound 57], the Ki falls from 643 nM to 361 nM (1.8-fold).

Compared with `Cc1ccc2cccc(OCc3c(Cl)ccc(N(C)C(=O)Cc4ccc(C(=O)C(C)(C)C)n4C)c3Cl)c2n1` [Compound 31], `Cc1ccc2cccc(OCc3c(Cl)ccc(N(C)C(=O)Cc4ccc(C(=O)c5ccc(C)s5)n4C)c3Cl)c2n1` [Compound 41] is 2.4-fold lower in Ki: 1710 nM for the first, 704 nM for the second.

First: Cc1ccc2cccc(OCc3c(Cl)ccc(N(C)C(=O)Cc4ccc(C(=O)c5ccc6ccccc6c5)n4C)c3Cl)c2n1 [Compound 26]
Second: Cc1ccc2cccc(OCc3c(Cl)ccc(N(C)C(=O)Cc4ccc(C(=O)c5ccccc5)n4C)c3Cl)c2n1 [Compound 29]
The Ki of the first is 1.8-fold higher: 4050 nM for the first, 2290 nM for the second.

First: Cc1ccc2cccc(OCc3c(Cl)ccc(N(C)C(=O)Cc4cc(C(=O)c5ccc(C#N)cc5)cs4)c3Cl)c2n1 [Compound 115, 2-[4-(4-Cyano-benzoyl)-thiophen-2-yl]-N-[2,4-dichloro-3-(2-methyl-quinolin-8-yloxymethyl)-phenyl]-N-methyl-acetamide]
Second: CCn1cc(CC(=O)N(C)c2ccc(Cl)c(COc3cccc4ccc(C)nc34)c2Cl)cc1C(=O)c1ccc(C#N)cc1 [Compound 3, 2-[5-(4-Cyano-benzoyl)-1-ethyl-1H-pyrrol-3-yl]-N-[2,4-dichloro-3-(2-methyl-quinolin-8-yloxymethyl)phenyl]-N-methyl-acetamide]
The Ki of the first is 83-fold lower: 6.4 nM for the first, 532 nM for the second. The first binds more tightly here.

Compared with `Cc1ccc2cccc(OCc3c(Cl)ccc(N(C)C(=O)Cc4ccc(C(=O)c5ccc(Cl)cc5)n4C)c3Cl)c2n1` [Compound 40], `Cc1ccc2cccc(OCc3c(Cl)ccc(N(C)C(=O)Cc4ccc(C(=O)c5ccc(N)cc5)n4C)c3Cl)c2n1` [Compound 56, 2-[5-(4-Amino-benzoyl)-methyl-1H-pyrrol-2-yl]-N-[2,4-dichloro-3-(2-methyl-quinolin-8-yloxymethyl)-phenyl]-N-methyl-acetamide] is 1.9-fold lower in Ki: 752 nM for the first, 406 nM for the second. The second binds more tightly here.

Compared with `Cc1ccc2cccc(OCc3c(Cl)ccc(N(C)C(=O)Cc4ccc(C(=O)CN(C)c5ccccc5)n4C)c3Cl)c2n1` [Compound 24], `Cc1ccc2cccc(OCc3c(Cl)ccc(N(C)C(=O)Cc4ccc(C(=O)CN(C)c5ccccn5)n4C)c3Cl)c2n1` [Compound 49] is 11-fold lower in Ki: 5350 nM for the first, 508 nM for the second. The second binds more tightly here.

Going from `COc1ccc(C(=O)c2ccc(CCC(=O)N(C)c3ccc(Cl)c(COc4cccc5ccc(C)nc45)c3Cl)s2)cc1` [Compound 107] to `Cc1ccc2cccc(OCc3c(Cl)ccc(N(C)C(=O)CCc4ccc(C(=O)c5ccccc5)s4)c3Cl)c2n1` [Compound 105], the Ki rises from 321 nM to 882 nM (2.7-fold). The first binds more tightly here.

Compared with `Cc1ccc2cccc(OCc3c(Cl)ccc(N(C)C(=O)Cc4ccc(C(=O)C5CCCCC5)n4C)c3Cl)c2n1` [Compound 30], `Cc1ccc2cccc(OCc3c(Cl)ccc(N(C)C(=O)Cc4ccc(C(=O)c5ccsc5)n4C)c3Cl)c2n1` [Compound 55] is 5.2-fold lower in Ki: 1790 nM for the first, 341 nM for the second. The second binds more tightly here.

First: COc1ccc(C(=O)c2ccc(CC(=O)Nc3ccc(Cl)c(COc4cccc5ccc(C)nc45)c3Cl)n2C)cc1 [Compound 119]
Second: COc1ccc(C(=O)c2c(C)cc(CC(=O)Nc3ccc(Cl)c(COc4cccc5ccc(C)nc45)c3Cl)n2C)cc1 [Compound 120]
The Ki of the first is 9-fold higher: 14000 nM for the first, 1560 nM for the second.

First: Cc1ccc2cccc(OCc3c(Cl)ccc(N(C)C(=O)Cc4ccc(C(=O)c5ccccc5)s4)c3Cl)c2n1 [Compound 109, 2-(5-Benzoyl-thiophen-2-yl)-N-[2,4-dichloro-3-(2-methyl-quinolin-8-yloxymethyl)-phenyl]-N-methyl-acetamide]
Second: Cc1ccc2cccc(OCc3c(Cl)ccc(N(C)C(=O)Cc4ccc(C(=O)C=Cc5ccccc5)n4C)c3Cl)c2n1 [Compound 27]
The Ki of the first is 72-fold lower: 53 nM for the first, 3800 nM for the second. The first binds more tightly here.

`Cc1ccc2cccc(OCc3c(Cl)ccc(N(C)C(=O)Cc4ccc(C(=O)c5ccc(N(C)C)cc5)n4C)c3Cl)c2n1` [Compound 118, N-[2,4-Dichloro-3-(2-methyl-quinolin-8-yloxymethyl)-phenyl]-2-[5-(4-dimethylamino-benzoyl)-1-methyl-1H-pyrrol-2-yl]-N-methyl-acetamide] and `Cc1ccc2cccc(OCc3c(Cl)ccc(N(C)C(=O)Cc4ccc(C(=O)c5ccc(CN(C)C)cc5)n4C)c3Cl)c2n1` [Compound 47] are within 1.5-fold of each other in Ki: 428 nM for the first, 515 nM for the second.

First: Cc1ccc2cccc(OCc3c(Cl)ccc(NC(=O)Cc4cc(C)c(C(=O)c5ccc(N)cc5)n4C)c3Cl)c2n1 [Compound 121]
Second: Cc1ccc(C(=O)c2ccc(CC(=O)N(C)c3ccc(Cl)c(COc4cccc5ccc(C)nc45)c3Cl)n2C)cc1 [Compound 54]
The Ki of the first is 56-fold higher: 19800 nM for the first, 356 nM for the second. The second binds more tightly here.

Going from `CC(=O)Nc1ccccc1C(=O)c1ccc(CC(=O)N(C)c2ccc(Cl)c(COc3cccc4ccc(C)nc34)c2Cl)n1C` [Compound 36] to `Cc1ccc2cccc(OCc3c(Cl)ccc(N(C)C(=O)Cc4ccc(C(=O)c5ccc(Cl)s5)n4C)c3Cl)c2n1` [Compound 25], the Ki rises from 869 nM to 4180 nM (4.8-fold).

Going from `Cc1ccc2cccc(OCc3c(Cl)ccc(N(C)C(=O)Cc4ccc(C(=O)c5cnc(Cl)c(Cl)c5)n4C)c3Cl)c2n1` [Compound 52] to `Cc1ccc2cccc(OCc3c(Cl)ccc(N(C)C(=O)Cc4ccc(C(=O)c5ccc(S(N)(=O)=O)cc5)n4C)c3Cl)c2n1` [Compound 70], the Ki falls from 427 nM to 162 nM (2.6-fold).

First: Cc1nc2c(OCc3c(Cl)ccc(N(C)C(=O)Cc4ccc(C(=O)c5ccc(C#N)cc5)n4C)c3Cl)cccn2c1Br [Compound 102, N-[3-(3-Bromo-2-methyl-imidazo[1,2-a]pyridin-8-yloxymethyl)-2,4-dichlorophenyl]-2-[5-(4-cyano-benzoyl)-1-methyl-1H-pyrrol-2-yl]-N-methyl-acetamide]
Second: Cc1ccc2cccc(OCc3c(Cl)ccc(N(C)C(=O)Cc4ccc(C(=O)c5ccc(C(F)(F)F)cc5)n4C)c3Cl)c2n1 [Compound 51]
The Ki of the first is 10-fold lower: 47.4 nM for the first, 476 nM for the second.

`COc1ccc(-c2ccc(CC(=O)N(C)c3ccc(C)c(COc4cccc5ccc(C)nc45)c3C)n2C)cc1` [Compound 96, N-[2,4-Dimethyl-3-(2-methyl-quinolin-8-yloxymethyl)-phenyl]-2-[5-(4-methoxyphenyl)-1-methyl-1H-pyrrol-2-yl]-N-methyl-acetamide] was tested, and the Ki was 2120 nM.
